Patent publication EP0211584A1, “Antihypertensive agents” (AMERICAN HOME PRODUCTS CORPORATION, priority 1985, dated 1987)

Assays:
[1] = tested on: spontaneously hypertensive rats; experiment: Hypotensive effect: systolic blood pressure of spontaneously hypertensive rats; assay type: in vivo; details: mmHg per method
Protocol: The hypotensive in vivo effect of the compounds of this invention was determined by measuring changes in the systolic blood pressure of spontaneously hypertensive rats with a Decker Caudal Plethysmograph. The compound being tested was administered to a group of 4 rats and their systolic pressure was determined prior to and at 1.5 and 4 hours after compound administration. Initial testing was done by oral administration of the compound. Results (mmHg) are expressed as decreases in systolic blood pressure.
(§1) The following examples illustrate the preparation of a representative number of compounds of this invention. After each example, the Ca+2 antagonist activity of the compound is presented in terms of percent relaxation of aortic tissue (P.R.) at 10-^5M concentration. […] Inhibition of super- precipitation (Antag. of Actin-Myosin interaction) is expressed as percent inhibition (mean ± standard error of the mean for at least 3 separate experiments) at a compound concentration. In the same manner, inhibition of myosin light chain phosphorylation (Antag. of MLCP) is expressed as a percent inhibition at a compound concentration. Similarly, the antihypertensive activity is reported in terms of millimetres mercury (mmHg) systolic blood pressure (B.P.) reduction at the stated time post 50 mg/kg oral dosing or other dosing as indicated.

[2] = tested on: isolated paced intact rabbit atria; experiment: Cardiac depressant (negative inotropic) effect in isolated paced rabbit atria; details: Oryctolagus cuniculus; rabbit atria paced at 3Hz, 30°C, cumulative dosing; read-out: IC25 (concentration which produces 25% inhibition of isometric force)
Protocol: The potential for detrimental cardiac depressant (negative inotropic) effects of the compounds of this invention was assessed in isolated paced intact rabbit atria. […] Muscles (N=5-9/compound) were stimulated at a frequency of 3Hz with a WPI stimulator for a 60 minute equilibration period. Changes in isometric force were recorded as described for the aortic smooth muscle experiments, supra. […]

[3] = molecular target: Ca^+2-calmodulin dependent myosin light chain phosphorylation (Bos taurus, UniProt Q28824); experiment: Inhibition of myosin light chain phosphorylation (MLCP), Silver et al.; assay type: biochemical; details: read-out: Antag. of MLCP (percent inhibition of myosin light chain phosphorylation)
Protocol: The data reported herein was obtained at a six minute time-point rather than the 1.5, 5 and 12 minute time points indicated in the superprecipita- tion assay of the Silver et al paper.
as §1

[4] = tested on: rabbit aortic smooth muscle; experiment: Ca+2 antagonism: relaxation of KCl-depolarized rabbit aortic smooth muscle strips; details: Oryctolagus cuniculus, 20 min, compound 1 x 10^-5M; 100mM KCl contraction; 20 minutes after addition; mean of two experiments; read-out: P.R. (percent relaxation of aortic tissue)
Protocol: The composition of PSS was as follows (mM): NaCl 112,KCI 5, NaHCO3 25 KH2PO4 1, MgSO4 1.2, CaCl2 2.5, dextrose 10. The lower end of each tissue strip was attached to a fixed post and the upper end to a Statham UC-4 transducer. Changes in force development were recorded on a Beckman Dynograph Polygraphic Recorder.
Following equilibration, the muscles were contracted in a depolarizing solution of PSS in which 100mM KCI was substituted for an equimolar concentration of NaCI. Following attainment of steady- state isometric force (20 min.), the test compound was added to afford a final concentration of 1 x 10^-5M. The inhibitory effect, expressed as percent relaxation, was determined from the mean of two experiments twenty minutes after the addition of the compound being tested.
as §1

[5] = tested on: arterial actin-myosin interactions; experiment: Inhibition of superprecipitation (antagonism of actin-myosin interaction), Silver et al.; assay type: biochemical; details: six minute time-point
Protocol: . The data reported herein was obtained at a six minute time-point rather than the 1.5, 5 and 12 minute time points indicated in the superprecipita- tion assay of the Silver et al paper.
as §1

Row | inhibition at 10 µM ([3]; 10µM) [%] | inhibition at 25 µM [3] [%] | inhibition at 50 µM [3] [%] | inhibition at 100 µM [3] [%] | SMILES | B.P. (systolic blood pressure reduction) ([1]; dose 5mg/kg oral, at 1.5 hours) [mm] | B.P. (systolic blood pressure reduction) ([1]; dose 5mg/kg oral, at 4 hours) [mm] | B.P. (systolic blood pressure reduction) ([1]; dose 25mg/kg oral, at 1.5 hours) [mm] | B.P. (systolic blood pressure reduction) ([1]; dose 25mg/kg oral, at 4 hours) [mm] | IC25 [2] [µM] | inhibition at 10 µM [4] [%] | Antag. of Actin-Myosin (percent inhibition of superprecipitation) ([5]; 10µM) [%] | Antag. of Actin-Myosin (percent inhibition of superprecipitation) ([5]; 25µM) [%] | Antag. of Actin-Myosin (percent inhibition of superprecipitation) ([5]; 50µM) [%] | Antag. of Actin-Myosin (percent inhibition of superprecipitation) ([5]; 100µM) [%] | B.P. (systolic blood pressure reduction) ([1]; dose 50mg/kg oral, at 1.5 hours) [mm] | B.P. (systolic blood pressure reduction) ([1]; dose 50mg/kg oral, at 4 hours) [mm] | B.P. (systolic blood pressure reduction) ([1]; dose 10mg/kg oral, at 1.5 hours) [mm] | B.P. (systolic blood pressure reduction) ([1]; dose 10mg/kg oral, at 4 hours) [mm]
1 | 32 ± 8 | 48 ± 3 | 60 ± 4 | 67 ± 2.3 | CC1=C(C(=O)OCCOc2cccc(Cl)c2Cl)C(c2c(F)ccc(Cl)c2Cl)C2=C(CNCC2=O)N1 (centres unmarked) [Example 25, 4-(2,3-dichloro-6-fluorophenyl)-1,4,5,6,7,8-hexahydro-2-methyl-5-oxo-1,7-naphthyridine-3-carboxylic acid 2-(2,3-dichlorophenoxy)ethyl ester] | -18 | -40 | -74 | -70 | 0.7 | 59 | 34±7 | 55±2.5 | 67±5 | 73±2.4 | – | – | – | –
2 | – | 38 ± 3 | 66 | 76 ± 2 | COC(COC(=O)C1=C(C)NC2=C(C(=O)CNC2)C1c1cccc(Cl)c1Cl)c1ccccc1 (centres unmarked) [Example 1, 4-(2,3-Dichloroohenyl)-1,4,5,6,7,8-hexahydro-2-methyl-5-oxo-1,7-naphthyridine-3-carboxylic acid 2-methoxy-2-phenylethyl ester] | – | – | – | – | 10 | 32 | – | 43± 2 | 75±3 | 83± 3 | -53 | -30 | – | –
3 | – | – | 59 | 74 | CO[C@H](COC(=O)C1=C(C)NC2=C(C(=O)CNC2)C1c1c(F)c(F)c(F)c(F)c1F)c1ccccc1 (stereo partly drawn) [Example 7, 1,4,5,6,7,8-Hexahydro-2-methyl-5-oxo-4-(pentafluorophenyl)-1,7-naphthyridine-3-carboxylic acid (S)-2-methoxy-2-ohenylethyl ester] | – | – | – | – | 65 | 68 | – | – | 67 | 80 | – | – | -51 | -54
